The NIST ThermoML archive (doi:10.1007/s10765-005-8096-3)

Test: refractive index (Na D-line) (dimensionless); xn = mol fraction of the nth substance listed
Settings: 101 kPa, Liquid, Standard Abbe refractometry

CC(C)(C)c1ccccc1 [(1,1-dimethylethyl)benzene] + CCCCOC(C)=O
refractive index
Settings	293.15 K	298.15 K	303.15 K	308.15 K	313.15 K
x2 = 0.0517	1.48818	1.48564	1.48328	1.48061	1.47812
x2 = 0.1	1.48411	1.48154	1.47905	1.47649	1.47384
x2 = 0.1522	1.4795	1.47702	1.47452	1.47204	1.46953
x2 = 0.1995	1.47531	1.47273	1.47031	1.4677	1.46521
x2 = 0.2511	1.47077	1.46811	1.4657	1.46309	1.46062
x2 = 0.3008	1.46621	1.4636	1.4612	1.45859	1.45614
x2 = 0.3516	1.46145	1.45891	1.45652	1.45387	1.45137
x2 = 0.4061	1.45636	1.45381	1.45141	1.4488	1.44635
x2 = 0.4489	1.45221	1.44966	1.44727	1.4447	1.44226
x2 = 0.4994	1.44728	1.44477	1.44234	1.43978	1.43736
x2 = 0.5499	1.44227	1.43976	1.43736	1.43476	1.43237
x2 = 0.607	1.43649	1.434	1.43155	1.42904	1.42656
x2 = 0.6496	1.43209	1.42958	1.42717	1.42461	1.42212
x2 = 0.7006	1.42687	1.42436	1.42195	1.41938	1.41686
x2 = 0.7489	1.42175	1.41927	1.41683	1.41427	1.41174
x2 = 0.8013	1.41615	1.41367	1.41122	1.40871	1.40625
x2 = 0.8509	1.41079	1.40829	1.40593	1.40331	1.4009
x2 = 0.9005	1.40535	1.40288	1.40048	1.39799	1.39547
x2 = 0.95	1.39982	1.39742	1.3949	1.39263	1.39007

CCCCOC(C)=O [butyl ethanoate] + Cc1ccccc1
refractive index
Settings	293.15 K	298.15 K	303.15 K	308.15 K	313.15 K
x1 = 0.0499	1.49044	1.48757	1.48472	1.4818	1.47891
x1 = 0.0998	1.48428	1.48149	1.47861	1.47573	1.47285
x1 = 0.15	1.47815	1.47538	1.47251	1.46966	1.46684
x1 = 0.2001	1.47222	1.46948	1.46668	1.46382	1.46101
x1 = 0.2502	1.46644	1.46358	1.46079	1.45814	1.45535
x1 = 0.2985	1.461	1.45826	1.45547	1.45277	1.4501
x1 = 0.3447	1.4559	1.45318	1.45041	1.44769	1.44494
x1 = 0.4011	1.4498	1.44705	1.4443	1.44161	1.4389
x1 = 0.4468	1.44504	1.44235	1.4397	1.43691	1.43423
x1 = 0.4994	1.43964	1.43696	1.4343	1.43157	1.42895
x1 = 0.5524	1.4343	1.43166	1.42902	1.42632	1.42368
x1 = 0.5999	1.42964	1.42695	1.42432	1.42164	1.41904
x1 = 0.6517	1.42468	1.42207	1.41943	1.41676	1.41415
x1 = 0.7	1.42017	1.41756	1.41498	1.41233	1.40974
x1 = 0.7516	1.41545	1.41287	1.41026	1.40773	1.40511
x1 = 0.7972	1.41141	1.40888	1.40629	1.40371	1.4012
x1 = 0.8404	1.4076	1.40508	1.4025	1.39992	1.39741
x1 = 0.8971	1.40273	1.40025	1.39777	1.39518	1.39265
x1 = 0.9449	1.39881	1.3963	1.39384	1.39133	1.38884

CCCCc1ccccc1 [butylbenzene] + CCCCOC(C)=O
refractive index
Settings	293.15 K	298.15 K	303.15 K	308.15 K	313.15 K
x2 = 0.049	1.48578	1.48339	1.48091	1.47847	1.47595
x2 = 0.1016	1.48141	1.47885	1.47649	1.47387	1.47154
x2 = 0.1545	1.47686	1.47443	1.47201	1.46946	1.46708
x2 = 0.1989	1.47295	1.47054	1.46814	1.46556	1.46318
x2 = 0.2515	1.46838	1.46596	1.46358	1.461	1.45858
x2 = 0.3023	1.46389	1.46143	1.45905	1.45651	1.45403
x2 = 0.3501	1.45956	1.45713	1.4547	1.45232	1.44977
x2 = 0.3997	1.45505	1.45258	1.45018	1.44769	1.44526
x2 = 0.45	1.45031	1.44787	1.44547	1.44298	1.44055
x2 = 0.4993	1.44563	1.44318	1.44078	1.43832	1.43589
x2 = 0.5496	1.44082	1.43837	1.43591	1.43351	1.43104
x2 = 0.6004	1.43586	1.43342	1.43102	1.42848	1.42602
x2 = 0.6499	1.43099	1.42852	1.42607	1.42354	1.42107
x2 = 0.6998	1.42593	1.42345	1.42099	1.41852	1.41609
x2 = 0.7517	1.4207	1.41819	1.41576	1.41331	1.41084
x2 = 0.801	1.41551	1.41312	1.4106	1.40817	1.40574
x2 = 0.8489	1.41049	1.40806	1.40567	1.40319	1.40078
x2 = 0.8999	1.40499	1.40257	1.40021	1.39782	1.39529
x2 = 0.9493	1.39969	1.39734	1.39484	1.39244	1.39
